# Data as given in PubChem BioAssay AID1902 (Broad Institute, 2009).
# The source made the active and inactive calls.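 How the source made its calls: active means EC50 no more than a set limit of log units above the highest dose; inactive means the rest.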
# Target: S. pyogenes SKKanGAS, kanamycin survival, BacTiterGlo, 6 h
# Test: SKKanGAS survival reduction under kanamycin, dose response, streptokinase promoter inhibitor project, SKKanGAS strain, luminescence, dose confirmation (AID 1902);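 further: lower survival reflects blocked streptokinase promoter driving kanamycin resistance gene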
row,Structure (SMILES),EC50
1,Oc1cc(OCc2ccccc2)ccc1-c1[nH]ncc1-c1ccccc1,3.06 µM
2,Cn1c(O)c(N=Nc2nc(-c3ccccc3)cs2)c2ccccc21,1.2 µM
3,O=C(NNc1ccccc1Cl)C(O)(c1cccc(C(F)(F)F)c1)c1cccc(C(F)(F)F)c1,2.61 µM
4,Cc1nnc(SCC2=C(C(=O)O)N3C(=O)C(NC(=O)C(C)n4nc(C(F)(F)F)cc4C)C3SC2)s1 (stereo unspecified),0.14 µM
5,COc1c(N2CCNC(C)C2)c(F)cc2c(=O)c(C(=O)O)cn(C3CC3)c12 (stereo unspecified),0.668 µM
6,Cc1cccc(OCCn2c(NC(=O)c3ccco3)nc3ccccc32)c1,2.69 µM
7,Oc1ccc(-c2c(C3=CCCCC3)sc3ccccc23)cc1,4.97 µM
8,Nc1nc(Nc2cccc(Cl)c2)nc(NCc2ccco2)c1[N+](=O)[O-],7.92 µM
9,N#CCC(=O)Nc1ccc(C(=O)OC(C(=O)Nc2cc(C(F)(F)F)ccc2Cl)c2ccccc2)cc1 (stereo unspecified),3.64 µM
10,N=C(N)c1ccc(OCCCCCOc2ccc(C(=N)N)cc2)cc1,< 0.06 µM
11,Cc1cc(C)c2ccc(NN)nc2c1O,6.08 µM
12,CC(C)(C)NS(=O)(=O)c1ccc(NS(=O)(=O)Cc2ccccc2)cc1,> 15 µM (inactive)
13,O=C(NC(=S)NNC(=O)c1ccccc1O)c1ccc(F)cc1,1.29 µM
14,CCc1c(C)sc2nc(C(C)C)nc(SCC(=O)N3CCc4ccccc4C3)c12,7.89 µM
15,COc1ccccc1NC(=O)C(=O)NNC(=O)COc1ccc2ccccc2c1,2.2 µM
16,CCN1CCN(C(=O)N[C@@H](C(=O)N[C@@H]2C(=O)N3[C@@H]2SC(C)(C)[C@@H]3C(=O)O)c2ccccc2)C(=O)C1=O,0.285 µM
17,CCOC(=O)C1CCN(C2=C(NS(=O)(=O)c3ccc(Cl)cc3)C(=O)c3ccccc3C2=O)CC1,7.15 µM
18,Cc1ccccc1NC(=O)C(=O)NC(C)CCc1ccccc1 (stereo unspecified),> 15 µM (inactive)
19,c1ccc2c(-c3c[nH]c4ccccc34)c3ccccc3nc2c1,10.9 µM
20,CCc1nc(SCC(=O)N2c3ccccc3CC2C)c2c(C)c(C)sc2n1 (stereo unspecified),8.61 µM
21,COc1ccc2c(C)nc(Nc3nc(-c4ccccc4)cc(=O)[nH]3)nc2c1,2.75 µM
22,O=C(O)CCCN1C(=O)/C(=C/c2cn(-c3ccccc3)nc2-c2cccs2)SC1=S,2.72 µM
23,Cc1ccc2nc(N3C(=O)C(O)=C(C(=O)c4ccco4)C3c3cccs3)sc2c1 (stereo unspecified),2.1 µM
24,COc1cc(C(=O)NS(=O)(=O)c2ccccc2C)ccc1Cc1cn(C)c2ccc(NC(=O)OC3CCCC3)cc12,2.05 µM
25,Cc1nn2c(N3CCN(C(=O)c4ccco4)CC3)cc(C(C)(C)C)nc2c1-c1ccccc1,6.19 µM
26,Cc1cc(C)n(-c2nc(Nc3ccccc3C)nc(-n3nc(C)cc3C)n2)n1,5.32 µM

row,Structure (SMILES),EC50
1,Cc1cc(/C=C2/C(=N)N3C(=NC2=O)SN=C3S(C)(=O)=O)c(C)n1-c1ccc(F)cc1,4.98 µM
2,COCC1CCCCN1C(=O)c1ccc2oc(CCCc3ccccc3)nc2c1 (stereo unspecified),> 15 µM (inactive)
3,CCN1/C(=C\C=C\C2=[N+](CC)c3ccccc3C2(C)C)C(C)(C)c2ccccc21,7.34 µM
4,CCOc1ccc2nc(NC(=O)CN3CCC(n4nnc5cc(C(F)(F)F)ccc54)CC3)sc2c1,2.43 µM
5,CC1(C)OC(C(O)(c2ccccc2)c2ccccc2)[C@@H](C(O)(c2ccccc2)c2ccccc2)O1 (stereo partly specified),3.36 µM
6,Cn1c(C(=O)N2CCN(c3ccc([N+](=O)[O-])cc3)CC2)cc2c(=O)[nH]c3ccccc3c21,4.56 µM
7,COc1ccc(/C=C/C(=O)NC(=S)NNC(=O)c2cc(OC)c(OC)c(OC)c2)cc1OC,1.48 µM
8,O=C(Nc1nnc(SCc2c(Cl)cccc2Cl)s1)C1CC(=O)N(c2ccc3c(c2)OCCO3)C1 (stereo unspecified),9.74 µM
9,O=C(N/N=C/c1cc(O)ccc1Br)c1cccnc1,2.88 µM
10,COc1ccc(-c2cn[nH]c2-c2ccc(OC)cc2)cc1,6.64 µM
11,Cn1cc(C(=O)c2ccc(Cl)cc2Cl)cc1C(=O)N/N=C(\N)COc1ccc(Cl)cc1Cl,1.72 µM
12,CC/C(=N\NC(=S)Nc1cccc(C)c1)c1ccccc1,7.96 µM
13,CCCCn1c(=O)c(C(=O)Nc2ccccn2)c(O)c2ccccc21,5.09 µM
14,Cc1ccccc1NC1=C/C(=N\S(=O)(=O)c2ccc(C(=O)O)cc2)c2ccccc2C1=O,1.9 µM
15,COc1cc(/C=N/NC(=O)c2nnn(-c3nonc3N)c2C(C)C)ccc1OCc1ccc(F)cc1,11.3 µM
16,CCCCCn1c(N)c(-c2nc3ccccc3s2)c2c([N+](=O)[O-])nn(CC)c(=O)c21,8.16 µM
17,CCOC(=O)c1sc2nccc(N(C)C)c2c1N=CNOCc1c(F)cccc1Cl,5.16 µM
18,O=C1c2ccccc2CC1(Cc1ccccc1)Cc1ccccc1,4.35 µM
19,NC(=S)N=Nc1ccc(NN=C(N)N)cc1,< 0.06 µM
20,CCOc1ccc(Nc2cc(C)nc(-n3nc(C)cc3C)n2)cc1,14 µM
21,CC(=O)C1=C(c2ccc(Br)cc2)C(=O)c2ccccc2C1=O,1.45 µM
22,Cn1c(=O)c(NCCc2ccccc2)c2c3c(cccc31)C(=O)c1ccccc1-2,8.86 µM
23,CCOC(=O)Cc1cc(=O)n2[nH]cc(-c3cccc(Br)c3)c2n1,3.56 µM
24,Cc1nn(CC(=O)Nc2c(F)c(F)cc(F)c2F)c(=O)c2cccn12,> 15 µM (inactive)
25,O=C(Nc1nc(-c2ccccn2)cs1)Nc1ccc(F)cc1F,1.24 µM
26,Cc1nn(C)c(Cl)c1CN1CCCC(C(=O)Nc2ccc(-c3cscn3)cc2)C1 (stereo unspecified),> 15 µM (inactive)

row,Structure (SMILES),EC50
1,Cc1ccc2nc(N/C(=N/S(=O)(=O)c3ccc(F)cc3)c3ccccc3)sc2c1,6.17 µM
2,Cc1ccccc1CN1CCCN(Cc2ccc(Cl)cc2)S1(=O)=O,4.05 µM
3,CC(=O)NC(=S)Nc1ccc(NC(=S)NC(=O)/C=C/c2ccco2)cc1,8.72 µM
4,COc1ccc(CCCC(=O)N/N=C/c2cccc(OC)c2O)cc1C,1.66 µM
5,COc1cnc(-c2ccccn2)nc1Oc1c(C)cccc1C,0.202 µM
6,COc1cnc(-c2ccccn2)nc1Oc1ccccc1,2.03 µM
7,CCCn1nnnc1NC(=O)c1ccc2ccccc2c1,1.01 µM
8,Cc1c(C(=O)NNC(=O)c2ccccc2O)oc2ccc(Br)cc12,> 15 µM (inactive)
9,COC(=O)c1c(NC(=O)c2ccn(C)n2)sc2c1CCC2,> 15 µM (inactive)
10,CC(C)(C)c1ccc(OCC(=O)N2CCN(c3ncccn3)CC2)cc1,> 15 µM (inactive)
11,Cc1ccc(C23CC4CC(CC(C(=O)N5CCN(C)CC5)(C4)C2)C3)cc1,> 15 µM (inactive)
12,Cc1cc(C)n(C(=O)/C(C#N)=N/Nc2cc(Cl)cc(Cl)c2)n1,1.76 µM
13,COc1ccc(CC(=O)NC(=S)NNC(=O)COc2c(C)cccc2C)cc1,0.134 µM
14,COc1ccc(OCC(=O)NNC(=S)NC(=O)C2CC2)cc1,4.11 µM
15,Oc1ccccc1/C=N/NC(=S)NC1CC2C=CC1C2 (stereo unspecified),5.69 µM
16,C/C(=N\N=C(/N)SC1CC(=O)N(c2ccc(Cl)c(Cl)c2)C1=O)c1cccs1 (stereo unspecified),2.13 µM
17,COc1ccccc1C(=O)NNC(=O)C(=O)Nc1ccc(C)c(Cl)c1,1.65 µM
18,CC1(C)Cc2c(cnn2-c2ccccc2)C(NC(=O)CCCN2CCCC2=O)C1 (stereo unspecified),> 15 µM (inactive)
19,CCN(CC)c1ccc(/C=N/Nc2nc3ccccc3[nH]2)c(O)c1,3.17 µM
20,CCc1cc(-c2n[nH]c(C)c2Oc2ccc(C(C)C)cc2)c(O)cc1O,1.85 µM
21,COc1ccc2cc(C(=O)/C=C/c3cc(OC)c(O)c(OC)c3)ccc2c1,6.68 µM
22,COc1ccc(-c2noc(-c3ccccc3-c3ccccc3)n2)cc1,8.18 µM
23,Cc1ccc(NC(=O)c2cccc(OCc3c(C)noc3C)c2)cc1S(=O)(=O)Nc1ccccc1Cl,7.39 µM
24,Oc1ccccc1C1=NN(c2ccccc2)C(c2ccccc2)C1 (stereo unspecified),2.76 µM
